# According to article PMC4148593, “Activation of spleen cells by ArtinM may account for its immunomodulatory properties” (Cell and Tissue Research, 2014):
# Target: T1, rArtinM (recombinant ArtinM) (Artocarpus heterophyllus, UniProt Q2VPW4)
# T1 construct: recombinant, expressed in E. coli BL21; monomer
# T1 sequence (Q2VPW4 2-150): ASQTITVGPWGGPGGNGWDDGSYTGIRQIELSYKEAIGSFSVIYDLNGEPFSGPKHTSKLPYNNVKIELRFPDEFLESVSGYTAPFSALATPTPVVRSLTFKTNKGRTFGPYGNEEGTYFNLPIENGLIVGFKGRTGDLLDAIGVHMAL
# Test: MTT assay, inhibition of lectin-induced mitochondrial activity of murine spleen cells
# Type: cell-based
# Conditions: read-out: % inhibition at 50 mM
smiles,measurement,value
OC[C@H]1OC(O)[C@@H](O)[C@@H](O)[C@@H]1O (stereo partly drawn) [D-mannose],inhibition at 50000 µM,80%
